The text below walks through data of ChEMBL document CHEMBL1201862, “PubChem BioAssay data set” (2004).

Test in all cases: growth of human tumour cells (NCI), 48 h
Assay [1] deals with ACHN.
Assay [2] has as its system BT-549.
For assay [3], the system named is EKVX.
Assay [4] deals with HCT-116.
Assay [5] concerns HCT-15.
Assay [6] has as its system HL-60.
Assay [7] has as its system IGROV-1.
Assay [8] relates to KM12.
For assay [9], the system named is MCF7.
The test system of assay [10] is Malme-3M.
Assay [11] relates to NCI-H23.
In assay [12] the test system is NCI-H460.
Assay [13] concerns NCI-H522.
The test system of assay [14] is NCI/ADR-RES.
Assay [15] has as its system OVCAR-4.
For assay [16], the system named is SK-MEL-5.
For assay [17], the system named is SW-620.
For assay [18], the system named is TK-10.
Assay [19] relates to UACC-62.
In assay [20] the test system is SNB-75.

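1) Cells in 96-well plates. 2) Compound, 48 h, 5 concentrations. 3) Linear interpolation between surrounding doses. 4) Unreached endpoint = highest concentration. Here, GI50 denotes the concentration required for 50% inhibition of growth.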 Calls of active or inactive are those of the source. No stated cut-off is given here; in the data, active = GI50 up to about 1.1 µM and inactive = higher.

For `COC1=CC(=O)O/C1=C(\OC)C1OC1c1ccccc1` (stereo unspecified), the GI50 in assay [1] was > 100 µM (inactive); in assay [2], > 100 µM (inactive); in assay [3] it was > 100 µM (inactive); in assay [4], > 100 µM (inactive); in assay [5], over 100 µM; in assay [6] it was 85.7 µM (inactive). For the same compound, the GI50 in assay [7], in assay [8], in assay [9], in [10], in assay [11] and in assay [12] was > 100 µM (inactive) in each case. Besides, the GI50 in assay [13], in assay [14], in assay [15], in [16], in assay [17] and in assay [18] was > 100 µM (inactive) throughout. Moreover, the GI50 in [19] is > 100 µM (inactive).
With `COC(=O)[C@]12C3=C(O)C(=O)C[C@H]1OC[C@H]2C=CC3`, the GI50 in assay [1] is > 100 µM (inactive); in assay [2] it was > 100 µM (inactive); in assay [3], > 100 µM (inactive); in assay [4], > 10 µM (inactive); in assay [5], over 100 µM; in assay [7], > 100 µM (inactive). In addition, the GI50 in assay [8] is > 100 µM (inactive); in assay [9] it was > 100 µM (inactive); in assay [10] it was > 100 µM (inactive); in assay [11], > 100 µM (inactive); in assay [12] it was > 100 µM (inactive); in assay [13] it was 20.1 µM (inactive). Also, the GI50 was > 100 µM (inactive) in assay [14]; > 100 µM (inactive) in assay [15]; > 100 µM (inactive) in [16]; > 100 µM (inactive) in [20]; 29.2 µM (inactive) in [17]; > 100 µM (inactive) in [18]. Also, in [19], the GI50 is > 100 µM (inactive).
As for `O=c1[nH]nc(Cc2ccc(Cl)cc2)n1/N=C/c1cccs1`, the GI50 in [1] is 75.7 µM (inactive); in assay [2] it was 24.9 µM (inactive); in assay [3], 23 µM (inactive); in [4], 30.8 µM (inactive); in assay [5], over 100 µM; in [6], > 100 µM (inactive). The GI50 in assay [7] is 23.1 µM (inactive); in assay [8] it was > 100 µM (inactive); in assay [9] it was 44.3 µM (inactive); in assay [10] it was > 100 µM (inactive); in assay [11], 24.9 µM (inactive); in assay [12], > 100 µM (inactive). Also, the GI50 was 23.7 µM (inactive) in assay [13]; 50.5 µM (inactive) in assay [14]; > 100 µM (inactive) in assay [15]; 19.1 µM (inactive) in assay [20]; > 100 µM (inactive) in [17]; > 100 µM (inactive) in assay [19].
As to `CC1(C)CCC2=C(O1)/C(=N\Nc1ccccc1)c1ccccc1C2=O`, the GI50 is 17.7 µM (inactive) in [1]; 35.4 µM (inactive) in [2]; 20.9 µM (inactive) in assay [3]; 16.9 µM (inactive) in assay [4]; 29.6 µM in assay [5]; 35.8 µM (inactive) in assay [6]. Moreover, the GI50 was 34.6 µM (inactive) in [7]; 32.8 µM (inactive) in assay [8]; 18.9 µM (inactive) in assay [9]; 43.9 µM (inactive) in [10]; 34.8 µM (inactive) in assay [11]; 23.2 µM (inactive) in assay [12]. The GI50 in assay [13] was 29.4 µM (inactive); in assay [14], 31.1 µM (inactive); in assay [15] it was 31.2 µM (inactive); in [16], 32.1 µM (inactive); in assay [17], > 100 µM (inactive); in assay [18], 17.8 µM (inactive). The GI50 in assay [19] is 34.6 µM (inactive).
Regarding `O=C1NC2(CN3CCC2CC3)C(=O)N1CN(Cc1ccccc1)c1ccccc1` (stereo unspecified), the GI50 was 72.8 µM (inactive) in assay [1]; > 100 µM (inactive) in assay [2]; > 100 µM (inactive) in assay [3]; > 100 µM (inactive) in assay [4]; 41.2 µM in assay [5]; 21.1 µM (inactive) in assay [6]. Besides, the GI50 in assay [7] was > 100 µM (inactive); in [8] it was > 100 µM (inactive); in assay [9], 47.9 µM (inactive); in assay [11], 44.4 µM (inactive); in [12], 29.4 µM (inactive); in assay [13], 94.6 µM (inactive). In addition, the GI50 is > 100 µM (inactive) in assay [14]; > 100 µM (inactive) in [15]; 85.7 µM (inactive) in [16]; > 100 µM (inactive) in [20]; 31.7 µM (inactive) in [17]; > 100 µM (inactive) in assay [18]. Besides, the GI50 in [19] was > 100 µM (inactive).
As to `CC(C)(C)c1ccc(O)c(CN(Cc2cc(C(C)(C)C)ccc2O)C2CCCCC2)c1`, the GI50 in [1] was 20 µM (inactive); in assay [2] it was 19.8 µM (inactive); in assay [3], 17.5 µM (inactive); in assay [4] it was 16.2 µM (inactive); in [5] it was 20.7 µM; in assay [7], 17.6 µM (inactive). For the same compound, the GI50 in assay [8] is 20.5 µM (inactive); in [9] it was 17.4 µM (inactive); in assay [10] it was 15.8 µM (inactive); in [11] it was 20.4 µM (inactive); in [12] it was 16.7 µM (inactive); in assay [13], 15.8 µM (inactive). Also, the GI50 is 20.3 µM (inactive) in [14]; 16.9 µM (inactive) in assay [15]; 15.8 µM (inactive) in [16]; 23.3 µM (inactive) in assay [20]; 18.3 µM (inactive) in [17]; 17.7 µM (inactive) in assay [18]. For the same compound, the GI50 in assay [19] was 15.7 µM (inactive).
With `COc1cc(NC(C)=O)ccc1C(=O)NN1C(=O)C(Cl)C1c1ccco1` (stereo unspecified), the GI50 was 86.3 µM (inactive) in assay [1]; > 100 µM (inactive) in assay [2]; > 100 µM (inactive) in [3]; > 100 µM (inactive) in assay [4]; over 100 µM in [5]; 41.7 µM (inactive) in [6]. The GI50 in [7] was 80.5 µM (inactive); in assay [8], > 100 µM (inactive); in assay [9], 58.3 µM (inactive); in assay [10], > 100 µM (inactive); in assay [11], > 100 µM (inactive); in assay [13], > 100 µM (inactive). Besides, the GI50 in assay [14] was > 100 µM (inactive); in [15], > 100 µM (inactive); in [16], 76.4 µM (inactive); in assay [20], > 100 µM (inactive); in assay [17], > 100 µM (inactive); in assay [19] it was > 100 µM (inactive).
As to `O=c1s[s+]([O-])c2ccccc12` (stereo unspecified), the GI50 in [1] is > 100 µM (inactive); in assay [2] it was > 100 µM (inactive); in assay [3], > 100 µM (inactive); in [4], > 100 µM (inactive); in assay [5] it was 72.9 µM; in assay [6] it was 46.9 µM (inactive). The GI50 is > 100 µM (inactive) in assay [7]; > 100 µM (inactive) in assay [8]; > 100 µM (inactive) in assay [9]; > 100 µM (inactive) in assay [10]; > 100 µM (inactive) in assay [11]; 46.8 µM (inactive) in [12]. Further, the GI50 was 39.4 µM (inactive) in assay [13]; > 100 µM (inactive) in [14]; > 100 µM (inactive) in assay [15]; > 100 µM (inactive) in [16]; > 100 µM (inactive) in [20]; > 100 µM (inactive) in assay [17]. In assay [19], the GI50 was > 100 µM (inactive).
On to `CCOP(=O)(/C=C/n1ccc(=O)[nH]c1=O)OCC`, for which the GI50 in assay [1] is > 100 µM (inactive); in assay [2], > 100 µM (inactive); in assay [3] it was > 100 µM (inactive); in assay [4], > 100 µM (inactive); in assay [5], over 100 µM; in [6] it was > 100 µM (inactive). In addition, the GI50 in [7], in assay [8], in assay [9], in [11], in assay [12] and in assay [13] was > 100 µM (inactive) in each case. In addition, the GI50 in assay [14], in [15], in assay [16], in assay [20], in [17] and in assay [18] was > 100 µM (inactive) each time. Also, the GI50 in assay [19] is > 100 µM (inactive).
Turning to `Oc1c(C2=NNC(c3ccc(Cl)cc3Cl)C2)ccc2ccccc12` (stereo unspecified), the GI50 in assay [1] was 38.5 µM (inactive); in assay [2], 69.2 µM (inactive); in assay [4] it was 33.6 µM (inactive); in assay [5] it was 34.9 µM; in assay [7] it was 14.4 µM (inactive); in [8], 26.2 µM (inactive). In addition, the GI50 in [9] was 30.2 µM (inactive); in assay [10], 17.9 µM (inactive); in [11], 68.1 µM (inactive); in [12], 30.1 µM (inactive); in [13], 24 µM (inactive); in assay [14] it was 22 µM (inactive). The GI50 in [15] was 58.6 µM (inactive); in assay [16], 52 µM (inactive); in [20] it was 39.9 µM (inactive); in assay [17], 35.9 µM (inactive); in assay [18], 66.2 µM (inactive); in [19], 40.6 µM (inactive).
On to `OCC1=C[C@@](COCc2ccccc2)(OCc2ccccc2)[C@@H](OCc2ccccc2)[C@@H]1OCc1ccccc1`, for which the GI50 in [1] is 22.9 µM (inactive); in [2], 24.7 µM (inactive); in assay [3] it was 11.7 µM (inactive); in assay [4] it was 12.2 µM (inactive); in [5], 17.1 µM; in assay [6], 23.4 µM (inactive). Moreover, the GI50 in [7] is 7.01 µM (inactive); in [8], 15.9 µM (inactive); in [9], 3.76 µM (inactive); in assay [10] it was 18 µM (inactive); in assay [11], 16.6 µM (inactive); in assay [12] it was 18.8 µM (inactive). The GI50 in [13] was 11 µM (inactive); in assay [14], 3.61 µM (inactive); in assay [15], 21.4 µM (inactive); in [16], 15.7 µM (inactive); in [17] it was 18.5 µM (inactive); in assay [18], 21.3 µM (inactive). Further, the GI50 in assay [19] is 17.3 µM (inactive).
